Holding throughout (assay): growth of human tumour cells (NCI), 48 h
The subject of experiment [1] is RPMI-8226 leukemia.
Experiment [2] relates to A498 renal.
The test system of experiment [3] is HL-60(TB) leukemia.
In experiment [4] the test system is MALME-3M melanoma.
For experiment [5], the system named is TK-10 renal.
Experiment [6] concerns SR leukemia.
Experiment [7] concerns SK-MEL-28 melanoma.
Experiment [8] concerns SK-MEL-5 melanoma.
In experiment [9] the test system is UO-31 renal.
The test system of experiment [10] is 786-0 renal.

Several values for one entry are separate records, joined by “and”; a condition that tells them apart may be missing. Equal entries are not always repeated.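 Method: 48-hour compound exposure of cells in 96-well plates, five concentrations, linear interpolation of endpoints. Here, GI50 denotes the concentration required for 50% inhibition of growth. TGI: concentration producing complete growth inhibition.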

The text below walks through data of PubChem BioAssay (NCI).

`CC[C@@]12CC(C(=O)OC)=C3Nc4ccccc4[C@@]34CCN(C[C@H]3O[C@H]31)[C@@H]24`: the GI50 in experiment [1] is 23.5 µM; in experiment [2], 27.5 µM; in experiment [3] it was 24.7 µM; in experiment [4], 30.5 µM; in experiment [5], greater than 100 µM; in [6], 24 µM. The GI50 is 86.2 µM in experiment [7], 21.2 µM in experiment [8], 34.9 µM in [9] and greater than 100 µM in experiment [10]. For the same compound, the TGI is greater than 100 µM in experiment [1]; greater than 100 µM in experiment [2]; 81 µM in experiment [3]; greater than 100 µM in experiment [4]; greater than 100 µM in experiment [5]; greater than 100 µM in [6]. Further, the TGI in experiment [7] was greater than 100 µM; in experiment [8] it was 57.7 µM; in [9] it was greater than 100 µM; in [10], greater than 100 µM.

Consider `COc1ccc(-c2cc(-c3ccc(Cl)cc3)c(C#N)c(=O)n2CCCCCC(=O)Nc2ccccc2N)cc1`, for which the GI50 in experiment [1] is 1.43 µM; in [2], 1.37 µM; in experiment [3], 2.6 µM; in experiment [4] it was 3.19 µM; in experiment [5], 28.5 µM; in experiment [6], 2.02 µM. The GI50 in [7] is 3.88 µM; in experiment [8], 1.93 µM; in experiment [9], 3.96 µM; in experiment [10] it was 4.49 µM. Further, the TGI in experiment [1] was 7.28 µM; in [2], 19.2 µM; in [3] it was 7.12 µM; in experiment [4], 20.3 µM; in experiment [5], greater than 100 µM; in [6], greater than 100 µM. The TGI in experiment [7] is 97.8 µM; in experiment [8], 3.73 µM; in experiment [9], greater than 100 µM; in experiment [10] it was greater than 100 µM.

`COc1cc(F)c(F)c(F)c1C(=O)c1cnc(NC2CCN(S(C)(=O)=O)CC2)nc1N`: the GI50 in experiment [1] is 0.417 µM; in [2], 1.28 µM; in [3] it was 0.244 µM; in [4], 3.95 µM; in [5], 1.6 µM; in experiment [6] it was 0.371 µM. Further, the GI50 in experiment [7] is 2.24 µM; in experiment [8] it was 0.986 µM; in [9] it was 1.6 µM; in experiment [10], 1.64 µM. Moreover, the TGI is 9.66 µM in [1]; 6.69 µM in experiment [2]; 6.31 µM in experiment [3]; 11.3 µM in experiment [4]; 24.7 µM in experiment [5]; greater than 10 µM in experiment [6]. Moreover, the TGI is 18.4 µM in [7], greater than 23.6 µM in experiment [8], 13.4 µM in experiment [9] and greater than 21.5 µM in experiment [10].

Consider `O=C1Nc2ccc(I)cc2/C1=C/c1cc(Br)c(O)c(Br)c1`, for which the GI50 was 15.3 µM and 6.81 µM in [1]; > 16.3 µM and 20.3 µM in [2]; greater than 47.8 µM in experiment [3]; 5.9 µM and 4.62 µM in [4]; > 25 µM and 31.1 µM in experiment [5]; greater than 49.5 µM in experiment [6]. Further, the GI50 was 14.4 µM and 9.72 µM in experiment [7]; 13 µM and 10.5 µM in experiment [8]; > 16.4 µM and 18.1 µM in experiment [9]; > 24.1 µM and 18.2 µM in [10]. For the same compound, the TGI in experiment [1] was greater than 100 µM; in [2] it was > 25 µM and 41.9 µM; in experiment [3], greater than 100 µM; in [4], 22.2 µM and > 64.5 µM; in experiment [5], greater than 92.3 µM; in experiment [6] it was 98.9 µM. Besides, the TGI is greater than 72.2 µM in [7]; > 25 µM and 23.6 µM in experiment [8]; > 25 µM and 58.9 µM in [9]; > 25 µM and 45.5 µM in experiment [10].

Turning to `Nc1c2ccccc2nc2ccccc12`, the GI50 in experiment [1] was 3.26 µM and 1.48 µM; in experiment [2], 1.07 µM and 2.18 µM; in experiment [3], 3.05 µM and 1.85 µM; in experiment [4], 1.86 µM and 3.69 µM; in experiment [5] it was 2.07 µM and 4.61 µM; in experiment [6], 0.855 µM and 2.78 µM. Also, the GI50 in [7] is 1.89 µM and 3.69 µM; in experiment [8] it was 1.62 µM and 2.12 µM; in experiment [9], 1.25 µM and 1.6 µM; in [10], 2.61 µM and 3.64 µM. The TGI in experiment [1] is 18.6 µM and 5.94 µM; in experiment [2], 2.37 µM and 7.28 µM; in experiment [3], 6.99 µM and 10 µM; in experiment [4] it was 3.66 µM and 9.62 µM; in experiment [6], 6.84 µM and 16.6 µM; in experiment [7] it was 3.92 µM and 13.7 µM. The TGI in [8] was 2.99 µM and 4.46 µM; in experiment [9], 2.75 µM and 7.34 µM; in experiment [10] it was 11.4 µM and 14.7 µM.

On to `C=CC(C)(C)[C@@]12CC3C(=O)N[C@@H](Cc4ccccc4)C(=O)N3[C@@H]1N(C(C)=O)c1ccccc12` (some centres undefined), for which the TGI in experiment [1] is greater than 100 µM; in [2], greater than 100 µM; in [3], 62.1 µM; in [4], greater than 100 µM; in [5], greater than 100 µM; in experiment [6], greater than 100 µM. Also, the TGI in [7], in experiment [8], in experiment [9] and in experiment [10] was greater than 100 µM each time.

Consider `COc1cccc(-c2cc(-c3ccc(Nc4nc(Nc5ccc(Cl)cc5)nc(Nc5ccc(Cl)cc5)n4)cc3)nc(N)c2C#N)c1`, for which the GI50 in experiment [1] was 1.77 µM; in experiment [2] it was 4.7 µM; in experiment [3], 0.838 µM; in [4], 1.69 µM; in [5] it was 2.21 µM; in [6], 0.966 µM. Also, the GI50 in experiment [7] is 1.9 µM; in experiment [8], 2.03 µM; in experiment [9], 1.52 µM; in experiment [10], 1.77 µM. Besides, the TGI is greater than 27.9 µM in experiment [1]; 29.4 µM in experiment [2]; 8.23 µM in [3]; 3.45 µM in experiment [4]; 4.05 µM in experiment [5]; 4.22 µM in experiment [6]. Besides, the TGI in [7] worked out at 3.98 µM; in [8], 6.35 µM; in [9] it was 4.31 µM; in experiment [10], 3.43 µM.
